Laboratory results reported in patent US12075784B2, “Mixtures containing secondary calcium and magnesium phosphonate and their use as fungicide or fertilizer” ([…] (haftungsbeschränkt), priority 2016, dated 2024).

Tests used:
Plasmopara viticola [1] = experiment: B.5.1 Protective and curative treatment against Plasmopara viticola in grapevines (half-leaf); type: in vivo; conditions: example 12 diluted 1:100, examples 13/14 1:200, 0.05% Silwet L-77, ca. 2 μl/cm2, 6 days after first inoculation
Description: (§1) Potted grapevines were inoculated with Plasmopara viticola both before foliar treatment with the active agent and after washing the active agent coating off the leaves in order to test the effect of the residual depot of actives. To ensure a good comparability of the results and avoid or at least strongly minimize falsification of the effects, e.g. due to the use of leaves of different physiological age or of different expositions, a half-leaf treatment was carried out: In each case only one half of a leaf was treated, while the other half remained untreated and served as a control and reference for determining efficacy; the two halves being separated by the middle leaf vein. […]
6 days after the first inoculation the plants were placed for 12 h into a humid chamber and then the extent of infection was determined visually and the efficacy W was calculated from the infected leave surface according to the above Abbot's formula.
The expected efficacies for active compound combinations (i.e. secondary magnesium and calcium phosphonate) were determined using Colby's formula (Colby, S. R., “Calculating synergistic and antagonistic responses of herbicide combinations”, Weeds, 15, pp. 20-22, 1967) and compared to the observed efficacies. […]

[2] = tested on: Sphaerotheca fuliginea and Erysiphe cichoracearum; experiment: B.7 Protective treatment against Sphaerotheca fuliginea and Erysiphe cichoracearum in cucumber; type: in vivo; conditions: Cucumis sativus half-leaf treatment, example 12 diluted 1:100, examples 13/14 1:200, inoculated after 24 h, 18 days after treatment
Description: as §1, with “vein. For this purpose a precision sprayer was used for applying the active compounds on the one leaf half, while the half which was to stay untreated was covered with a blotting paper during spraying.” for “vein.”
In a greenhouse, leaves of Cucumis sativus plants var. […] 18 days after the treatment with the active compounds the extent of infection (formation of conidia) was determined visually and the efficacy W was calculated from the infected leave surface according to Abbot's formula. The expected efficacies for active compound combinations (i.e. secondary magnesium and calcium phosphonate) were determined using Colby's formula.

Erysiphe graminis = experiment: B.6 Protective treatment against Erysiphe graminis in wheat; type: in vivo; conditions: wheat cultivar Kanzler sprayed to runoff, example 12 diluted 1:100, examples 13/14 1:200, inoculated after 24 h, 18 days after treatment
Description: For a treatment according to the invention, the reaction mixture obtained in example 12 was diluted with water in 1:100 v/v ratio, then 0.05% Silwet® L-77 was added. For comparison, the reaction mixtures obtained in examples 13 and 14, respectively, were diluted with water in 1:200 v/v ratio, then 0.05% Silwet® L-77 was added.
B.6 Protective Treatment Against Erysiphe graminis in Wheat
In a greenhouse, wheat plants of the cultivar Kanzler with 2-3 fully developed leaves were sprayed to runoff-point with either a suspension of the product of example 13 containing secondary magnesium phosphonate, or of the product of example 14 containing secondary calcium phosphonate, or of the product of example 12 containing secondary calcium and magnesium phosphonate; in each case diluted and supplemented with a wetting agent as defined in example B.5.1. After 24 h the plants were inoculated with conidia of Erysiphe graminis. 18 days after the treatment with the active compounds the extent of infection (formation of conidia) was determined visually and the efficacy W was calculated from the infected leave surface according to Abbot's formula. The expected efficacies for active compound combinations (i.e. secondary magnesium and calcium phosphonate) were determined using Colby's formula.

Plasmopara viticola [3] = experiment: B.5.2 Curative treatment against Plasmopara viticola in grapevines; type: in vivo; conditions: without second inoculation, half-leaf, example 12 diluted 1:100, examples 13/14 1:200, 5 days after inoculation
Description: as §1, with “vein. For this purpose a precision sprayer was used for applying the active compounds on the one leaf half, while the half which was to stay untreated was covered with a blotting paper during spraying.” for “vein.”
(§2) The experiment was carried out in analogy to B.5.1, however without the second inoculation. 5 days after the inoculation the plants were placed for 12 h into a humid chamber and then the extent of infection was determined visually and the efficacy W was calculated from the infected leave surface according to Abbot's formula. The expected efficacies for active compound combinations (i.e. secondary magnesium and calcium phosphonate) were determined using Colby's formula.

Plasmopara viticola [4] = experiment: B.5.3 Protective treatment against Plasmopara viticola in grapevines; type: in vivo; conditions: without first inoculation, washed after 24 h, example 12 diluted 1:100, examples 13/14 1:200, 5 days after inoculation
Description: as §1, with “vein. For this purpose a precision sprayer was used for applying the active compounds on the one leaf half, while the half which was to stay untreated was covered with a blotting paper during spraying.” for “vein.”
as §2, with “the first” for “the second”

powdery mildew = conditions: dogwood plants; untreated control 30%; from U.S. Pat. Nos. 5,736,164 and 5,800,837; cited from earlier work
Rhizopus stolonifer = experiment: B.4 Protective action against Rhizopus stolonifer on rye bread (Pumpernickel); conditions: Pumpernickel slices; mixtures 1:50 diluted with water, sorbic acid 0.1% solution; after one week of incubation
Description: B.4 Protective Action Against Rhizopus stolonifer on Rye Bread (“Pumpernickel”)
Sterile slices of Pumpernickel were each sprayed with water (control), a 0.1% sorbic acid solution (a standard preservative) or the mixture of example 1 or of example 8 (1:50 diluted with water). For inoculation with the fungus, small disks of blotting paper were soaked with a spore suspension of Rhizopus stolonifer and placed onto the center of Pumpernickel slices. After one week of incubation, the degree of fungus formation was examined.

secondary magnesium phosphonate [Example 13]
Observed efficacy (Plasmopara viticola [1]): 16.5%
Observed efficacy [2]: 43.3%
Observed efficacy (Erysiphe graminis): 36.7%
Observed efficacy (Plasmopara viticola [3]): 47.3%
Observed efficacy (Plasmopara viticola [4]): 44.5%

potassium phosphonate
leaves infected with powdery mildew (powdery mildew): 100%

secondary calcium phosphonate [Example 14]
Observed efficacy (Plasmopara viticola [1]): 24.6%
Observed efficacy [2]: 20.0%
Observed efficacy (Erysiphe graminis): 11.7%
Observed efficacy (Plasmopara viticola [3]): 18.3%
Observed efficacy (Plasmopara viticola [4]): 35.1%

C/C=C/C=C/C(=O)O [Sorbic acid, sorbic acid]
Infected surface area (Rhizopus stolonifer): 40%
